Measurements: PMC12040169 (PLOS Biology, 2025)

Test: in vitro
Details: human, hela cells, % viability

SMILES | viability at 28.5 h, 10 µM [%]
O=C(O)C[C@@H]1CCN(C(=O)Nc2ccccc2)C[C@@H]1CCN1CCCCC1 [CBK288782] | 110
CC(=O)NCCN1CC[C@H]2CN(C(=O)COc3ccccc3)CC[C@H]2CC1=O [CBK288783] | 84.6
CC(=O)NCCN1CC[C@H]2CN(C(=O)c3cc(C)on3)CC[C@H]2CC1=O [CBK288785] | 103
COc1ccc(OC)c(S(=O)(=O)N2CC[C@H]3CC(=O)N(CCN(C)C)CC[C@H]3C2)c1 [CBK288788] | 104
C=CCNC(=O)N1CC[C@H]2CC(=O)N(Cc3ccc(OC)cc3)CC[C@H]2C1 [CBK288790] | 86.9
C=CCNC(=O)N1CC[C@H]2CC(=O)N(Cc3cccnc3)CC[C@H]2C1 [CBK288791] | 113
CCNC(=O)N1CC[C@H]2CC(=O)N(Cc3cccnc3)CC[C@H]2C1 [CBK288792] | 85.6
O=C1C[C@@H]2CCN(C(=O)NC3CCCCC3)C[C@@H]2CCN1CCN1CCNC1=O [CBK288796] | 96.4
COc1ccc(NC(=O)N2CC[C@H]3CC(=O)N(CCN4CCNC4=O)CC[C@H]3C2)cc1 [CBK288797] | 86.8
CC(C)(C)c1cc(C[C@H]2CNCC[C@H]2CC(=O)N2CCN(c3ccc(F)cc3)CC2)no1 [CBK288800] | 94.8
Cc1nn(CCC#N)c(C)c1[C@@H]1C=C[C@@H](NC(=O)Nc2ccc(Cl)cc2)C1 [CBK288803] | 95.8
COc1ccc(NC(=O)N[C@@H]2C=C[C@@H](c3c(C)nn(CCC#N)c3C)C2)cc1 [CBK288804] | 94.2
C=CCNC(=O)N[C@H]1[C@H](O)[C@@H](N2CCC(C(=O)OC)CC2)[C@@H]2OC[C@H]1O2 [CBK288807] | 82.1
CC(=O)N1CCN([C@H]2[C@@H]3OC[C@@H](O3)[C@@H](NCC3CCCCC3)[C@@H]2O)CC1 [CBK288809] | 90.6
O[C@H]1[C@H](NCc2ccco2)[C@H]2CO[C@H](O2)[C@@H]1N1CCC(Cc2ccccc2)CC1 [CBK288815] | 99.1
C=CCNC(=O)N[C@H]1[C@H](O)[C@@H](N(CC)CC)[C@@H]2OC[C@H]1O2 [CBK288817] | 91.1
C=CCNC(=O)N[C@H]1[C@H](O)[C@@H](N2CCN(c3ccccc3OC)CC2)[C@@H]2OC[C@H]1O2 [CBK288818] | 89.7
O[C@H]1[C@H](NCC2CC2)[C@H]2CO[C@H](O2)[C@@H]1N1CCOCC1 [CBK288819] | 86.4
COc1cccc(NC(=O)N[C@H]2[C@H](O)[C@@H](N3CCOCC3)[C@@H]3OC[C@H]2O3)c1 [CBK288821] | 109
O[C@H]1[C@H](NCc2ccco2)[C@H]2CO[C@H](O2)[C@@H]1N1CCCCC1 [CBK288825] | 106
Cn1c(CN2C[C@H](O)C[C@H]2c2nc(-c3ccccc3)no2)nc2ccccc21 [CBK288834] | 78.7
O[C@@H]1C[C@@H](c2nc(-c3ccncc3)no2)N(Cc2ccc(F)cc2)C1 [CBK288838] | 94.3
O=[N+]([O-])c1ccccc1CN1C[C@H](O)C[C@H]1c1nc(-c2ccncc2)no1 [CBK288839] | 91.2
O[C@@H]1C[C@@H](c2nc(-c3cccnc3)no2)N(Cc2cccs2)C1 [CBK288840] | 111
N#Cc1cccc(CN2C[C@H](O)C[C@H]2c2nc(Cc3ccccc3)no2)c1 [CBK288842] | 87.5

SMILES | viability at 28.5 h, 10 µM [%]
COc1ccc(-c2noc([C@@H]3C[C@@H](O)CN3Cc3cccc(C#N)c3)n2)cc1 [CBK288843] | 92.4
CC(=O)N1CCC(N2C[C@H](O)C[C@H]2c2nc(C3CC3)no2)CC1 [CBK288845] | 93.6
O=[N+]([O-])c1cccc(-c2noc([C@@H]3C[C@@H](O)CN3C3CCOCC3)n2)c1 [CBK288847] | 101
O[C@@H]1C[C@@H](c2nc(-c3ccc(F)cc3)no2)N(Cc2ncc[nH]2)C1 [CBK288849] | 121
Cc1ccc(-c2noc([C@@H]3C[C@H](NC(=O)CCC(=O)O)CN3C)n2)cc1 [CBK288852] | 93.8
CN1C[C@@H](NC(=O)COc2ccccc2)C[C@H]1c1nc(-c2ccncc2)no1 [CBK288855] | 90.4
CN1C[C@@H](NC(=O)Nc2ccccc2)C[C@H]1c1nc(-c2cccnc2)no1 [CBK288858] | 104
CN1C[C@@H](NS(C)(=O)=O)C[C@H]1c1nc(-c2ccc3ccccc3c2)no1 [CBK288859] | 106
COc1ccc(-c2noc([C@@H]3C[C@H](NC(=O)c4ccc(F)cc4)CN3C)n2)cc1 [CBK288861] | 118
COc1ccc(NC(=O)N[C@H]2C[C@@H](c3nc(-c4ccc(OC)cc4)no3)N(C)C2)cc1 [CBK288862] | 102
COc1ccc(-c2noc([C@@H]3C[C@H](NS(=O)(=O)Cc4ccccc4)CN3C)n2)cc1 [CBK288863] | 93.2
CC(C)c1noc([C@@H]2C[C@H](NS(=O)(=O)c3ccc(F)cc3)CN2C)n1 [CBK288864] | 114
CN1C[C@@H](NC(=O)c2ccc(C#N)cc2)C[C@H]1c1nc(-c2ccc(F)cc2)no1 [CBK288865] | 92.1
O=C(NC[C@H]1C[C@@H]2CC[N@]1C[C@@H]2CN1CCN(c2ccccn2)CC1)c1ccco1 [CBK288867] | 107
O=C(O)c1ccc(CN2C[C@H](O)C[C@H]2c2nc(-c3ccccn3)no2)cc1 [CBK288869] | 90
O=C(O)c1ccc(CN2C[C@H](O)C[C@H]2c2nc(-c3ccc(F)cc3)no2)cc1 [CBK288870] | 112
CN1C[C@@H](NS(=O)(=O)c2ccc(C#N)cc2)C[C@H]1c1nc(-c2ccncc2)no1 [CBK288871] | 86.9
Cc1noc([C@@H]2C[C@H](NC(=O)c3ccc(C#N)cc3)CN2C)n1 [CBK288872] | 97.6
Cc1noc([C@@H]2C[C@H](NC(=O)Nc3cccc(C#N)c3)CN2C)n1 [CBK288873] | 104
Cc1noc([C@@H]2C[C@H](NS(=O)(=O)c3ccc(C#N)cc3)CN2C)n1 [CBK288874] | 113
CN1C[C@@H](NS(C)(=O)=O)C[C@H]1c1nc(-c2ccc3c(c2)OCO3)no1 [CBK288875] | 114
CN1C[C@@H](NC(=O)Nc2ccccc2)C[C@H]1c1nc(-c2ccccc2)no1 [CBK288877] | 124
CN1C[C@@H](NC(=O)NCc2ccccc2)C[C@H]1c1nc(-c2cncnc2)no1 [CBK288878] | 108
CC(=O)N1CCN(c2cc(-c3noc([C@@H]4CCCN4C4CCOCC4)n3)ccn2)CC1 [CBK288879] | 88
COCCOc1ccc(-c2noc([C@@H]3CCCN3)n2)cn1 [CBK288883] | 97.4

SMILES | viability at 28.5 h, 10 µM [%]
CN1CCC[C@H]1c1nc(-c2ccnc(NS(C)(=O)=O)c2)no1 [CBK288884] | 86.8
CS(=O)(=O)Nc1cc(-c2noc([C@@H]3CCCN3Cc3ccncc3)n2)ccn1 [CBK288886] | 83.5
CS(=O)(=O)Nc1cc(-c2noc([C@@H]3CCCN3C3CCOCC3)n2)ccn1 [CBK288887] | 81.8
CS(=O)(=O)Nc1cc(-c2noc([C@@H]3CCCN3C3CCC3)n2)ccn1 [CBK288889] | 112
c1ccc(CN2CCC[C@H]2c2nc(-c3ccc(-c4cncnc4)nc3)no2)cc1 [CBK288891] | 87.5
CC(C)N1CCC[C@H]1c1nc(-c2ccc(-c3cncnc3)nc2)no1 [CBK288892] | 115
CN1CCC[C@H]1c1nc(-c2ccc(-n3ccnc3)nc2)no1 [CBK288893] | 96.6
Fc1ccc(-c2noc([C@@H]3CCCN3Cc3ncc[nH]3)n2)nc1 [CBK288897] | 102
COCc1cc(C[C@H]2CNCC[C@H]2CC(=O)N2CCCCC2)no1 [CBK288899] | 109
CN(C)c1ccc(-c2noc([C@@H]3CCCN3C)n2)cn1 [CBK288902] | 104
CS(=O)(=O)NC[C@H]1O[C@@H](Cc2nc(-c3ccc(F)cc3)no2)[C@H](O)[C@@H]1O [CBK288906] | 95.3
O=C(NC[C@H]1O[C@@H](CC(=O)N2CCCC2)[C@H](O)[C@@H]1O)c1ccccc1 [CBK288907] | 88.5
O=C(C[C@@H]1O[C@H](CNS(=O)(=O)c2ccccc2)[C@@H](O)[C@H]1O)N1CCCC1 [CBK288909] | 108
Cc1ccc(C(=O)NC[C@H]2O[C@@H](CC(=O)N3CCCC3)[C@H](O)[C@@H]2O)cc1 [CBK288912] | 98.9
O=C(C[C@@H]1O[C@H](CNCc2cccc(Cl)c2)[C@@H](O)[C@H]1O)N1CCCC1 [CBK288914] | 95
O=C(NC[C@H]1O[C@@H](CC(=O)N2CCc3ccccc32)[C@H](O)[C@@H]1O)C1CC1 [CBK288915] | 105
O=C(C[C@@H]1O[C@H](CNS(=O)(=O)c2ccccc2)[C@@H](O)[C@H]1O)N1CCc2ccccc21 [CBK288916] | 91.2
Cc1ccc(S(=O)(=O)NC[C@H]2O[C@@H](CC(=O)N3CCc4ccccc43)[C@H](O)[C@@H]2O)cc1 [CBK288917] | 91.3
O=C(NC[C@H]1O[C@@H](CC(=O)N2CCN(c3ccccc3)CC2)[C@H](O)[C@@H]1O)c1ccco1 [CBK288919] | 97.9
O=C(NC[C@H]1O[C@@H](CC(=O)N2CCN(c3ccccn3)CC2)[C@H](O)[C@@H]1O)c1ccco1 [CBK288923] | 102
Cc1ccc(C(=O)NC[C@H]2O[C@@H](CC(=O)N3CCOCC3)[C@H](O)[C@@H]2O)cc1 [CBK288925] | 85.5
CC1CCN(C(=O)C[C@@H]2O[C@H](CNC(=O)C3CC3)[C@@H](O)[C@H]2O)CC1 [CBK288926] | 92
COc1ccc(N2C(=S)N(Cc3cccs3)[C@H]3[C@@H](O)[C@H](O)C[C@@H](C(N)=O)[C@H]32)cc1 [CBK288929] | 93
NC(=O)[C@@H]1C[C@@H](O)[C@H](O)[C@H]2[C@@H]1N(c1ccc(Cl)cc1)C(=S)N2Cc1cccs1 [CBK288930] | 94.7
CN1CCC(N2C[C@H](O)C[C@H]2c2nc(-c3ccc4c(c3)OCO4)no2)CC1 [CBK288931] | 93.6
